Data taken from US20040254246A1, “Treating or preventing hot flashes using prodrugs of GABA analogs” (priority 2003, published 2004).

What was measured:
[1] = test system: hot flashes in postmenopausal women; assay: Open label clinical study of hot flash frequency and severity, osmotic sustained release capsules; assay type: in vivo, human; settings: osmotic sustained release capsules 700 mg, two capsules twice daily (2800 mg/day), oral, two weeks
Source text: Twenty postmenopausal women who have been experiencing hot flashes (an average of at least 6 per day, range 6-20 per day) over the past 12 months and who have not been treated with hormone therapy (i.e., no estrogen, progestin, tamoxifen or leuprolide therapy) over the past 2 months are recruited to an open label clinical study on the effect of administration of gabapentin prodrugs on the frequency and severity of hot flash symptoms. After a two week baseline screening assessment, the prodrug 1-{[(α-isobutanoyloxyethoxy)carbonyl]aminomethyl}-1-cyclohexane acetic acid, formulated as osmotic sustained release capsules containing 700 mg drug (preparation of the sustained release capsules is described in Section 5.2 above), is administered in two capsules twice daily (2800 mg/day, equal to ˜1400 mg gabapentin equivalents/day) for two weeks. Each patient records the frequency and severity of hot flashes in a diary following the protocol of Guttuso et al., Obstet. Gynecol 2003, 101, 337-345. Daily hot flash frequency is calculated by totaling the number of hot flashes per week and dividing by the number of days in the week for which data is recorded. The primary outcome measure is the percentage change in hot flash frequency from baseline to the end of treatment week two.

[2] = Drug release from sustained release oral osmotic dosage form in artificial gastric fluid; assay type: physicochemical; settings: osmotic sustained release dosage form of Section 5.2 (700 mg drug composition), one 10 mil passageway
Experimental: A sustained release oral osmotic delivery dosage form containing the gabapentin prodrug 1-{[(α-isobutanoyloxyethoxy)carbonyl]aminomethyl}-1-cyclohexane acetic acid is prepared following methods described in Ayer et al., U.S. Pat. No. 5,707,663. Accordingly, 660 grams of 1-{[α-isobutanoyloxyethoxy)carbonyl]aminomethyl}-1-cyclohexane acetic acid and 30 grams of pharmaceutical acceptable poly(ethylene oxide), 5,000,000 molecular weight, is added to the bowl of a fluid bed granulator. The microencapsulation process is computerized and atomized in cycles. The process is initiated by first fluidizing the dry drug and the polymer powder for 3 minutes and the blended granules are microencapsulated with aqueous hydroxypropylmethylcellulose solution. The polymer solution is prepared by dissolving 35 grams of hydroxypropylmethylcellulose comprising 11,200 molecular weight in 400 grams of water. […]
The osmotic displacement-push composition is then prepared as follows: first, 3.7 kg of sodium chloride and 150 grams of red ferric oxide are separately screened through an 8 mesh screen using a Quadro comil. […] The conditions monitored during the process are as follows: solution spray rate of 400 g/min (3 nozzles are used); inlet temperature 45° C.; outlet temperature 24° C. and process air flow of 1,500 ft^3/minute. […]

[3] = test system: hot flashes in postmenopausal women; assay: Open label clinical study of hot flash frequency and severity, immediate release capsules; assay type: in vivo, human; settings: immediate release 300 mg capsules, two capsules three times daily (1800 mg/day), oral, two weeks
Source text: Twenty postmenopausal women who have been experiencing hot flashes (an average of at least 6 per day, range 6-20 per day) over the past 12 months and who have not been treated with hormone therapy (i.e., no estrogen, progestin, tamoxifen or leuprolide therapy) over the past 2 months are recruited to an open label clinical study on the effect of administration of a gabapentin prodrug on the frequency and severity of hot flash symptoms. After a two week baseline screening assessment, the prodrug 1-{[(α-isobutanoyloxyethoxy)carbonyl]aminomethyl}-1-cyclohexane acetic acid (synthesized as described by Gallop et al., International Publication No. WO 02/100347), formulated as an immediate release dosage form in 300 mg capsules, is administered in two capsules three times daily (1800 mg/day, equal to ˜900 mg gabapentin equivalents/day) for two weeks. Each patient records the frequency and severity of hot flashes in a diary following the protocol of Guttuso et al., Obstet. Gynecol. 2003, 101, 337-345. Daily hot flash frequency is calculated by totaling the number of hot flashes per week and dividing by the number of days in the week for which data is recorded. The primary outcome measure is the percentage change in hot flash frequency from baseline to the end of treatment week two. […]

[4] = test system: hot flashes in postmenopausal women; settings: 59 postmenopausal women, double-blind placebo controlled trial; cited from earlier work

Row | SMILES | decrease in mean hot flash intensity from baseline [1] | release rate [2] [mg/h] | decrease in mean hot flash intensity from baseline [3] | reduction in hot flash frequency from baseline [4]
1 | CC(OC(=O)NCC1(CC(=O)O)CCCCC1)OC(=O)C(C)C (stereo not drawn) [1-{[(α-isobutanoyloxyethoxy)carbonyl]aminomethyl}-1-cyclohexane acetic acid] | more than 35% | > 20 | more than 35% | –
2 | NCC1(CC(=O)O)CCCCC1 [gabapentin, 1-Aminomethyl-1-cyclohexane acetic acid] | – | – | – | substantial reduction in hot flash frequency from baseline
